How the values were obtained:
Assay in all cases: relative viability (nuclei count vs DMSO), 5 days (fraction); higher = more cells survive
A-427 = tested on: A-427
In short: (§1)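 Nuclei were stained with Hoechst during a one-step fixation (final 0.05% Triton X-100, 1% formaldehyde, 1 ug/ml Hoechst) carried out 5 days after dosing, then counted on 4× images. The cells, lung cancer lines in 1536-well plates, had been dosed by pin tool the day after seeding with one drug alone or a fixed anchor-drug dose plus five library-drug doses (not always all listed) in √10 steps. Relative viability is the nuclei count in treated wells divided by that in vehicle wells, and each value is the median of duplicate plates.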

NCI-H460 = tested on: NCI-H460
In short: as §1

NCI-H522 = tested on: NCI-H522
In short: as §1

NCI-H1395 = tested on: NCI-H1395
In short: as §1

COR-L 105 = tested on: COR-L 105
In short: as §1

NCI-H2009 = tested on: NCI-H2009
In short: as §1

NCI-H727 = tested on: NCI-H727
In short: as §1

NCI-H1792 = tested on: NCI-H1792
In short: as §1

SW 1573 = tested on: SW 1573
In short: as §1

NCI-H1355 = tested on: NCI-H1355
In short: as §1

NCI-H1975 = tested on: NCI-H1975
In short: as §1

SK-LU-1 = tested on: SK-LU-1
In short: as §1

HCC-827 = tested on: HCC-827
In short: as §1

HARA = tested on: HARA
In short: as §1

EMC-BAC-2 = tested on: EMC-BAC-2
In short: as §1

NCI-H1437 = tested on: NCI-H1437
In short: as §1

LCLC-103H = tested on: LCLC-103H
In short: as §1

HOP-62 = tested on: HOP-62
In short: as §1

CAL-12T = tested on: CAL-12T
In short: as §1

NCI-H1915 = tested on: NCI-H1915
In short: as §1

NCI-H23 = tested on: NCI-H23
In short: as §1

NCI-H1755 = tested on: NCI-H1755
In short: as §1

NCI-H2228 = tested on: NCI-H2228
In short: as §1

Work on `COc1cc(N2CCC(C(N)=O)CC2)ccc1Nc1nc(N)c(Cl)c(Nc2ccccc2S(=O)(=O)C(C)C)n1` [HG-5-88-01] + CCNC(=O)c1noc(-c2cc(C(C)C)c(O)cc2O)c1-c1ccc(CN2CCOCC2)cc1 [Luminespib] (partner 0.01 µM) yielded a relative viability (A-427; first compound 0.04 µM) of 1.13, a relative viability (A-427; first compound 0.1265 µM) of 0.916 and a relative viability (A-427; first compound 0.4 µM) of 0.901. For the same compound, the relative viability (A-427; first compound 1.265 µM) was 0.769, the relative viability (A-427; first compound 4 µM) was 0.754 and the relative viability (NCI-H460; first compound 0.04 µM) was 0.0373. For the same compound, the relative viability (NCI-H460; first compound 0.1265 µM) was 0.0308, the relative viability (NCI-H460; first compound 0.4 µM) was 0.0242 and the relative viability (NCI-H460; first compound 1.265 µM) was 0.0363. It also gave a relative viability (NCI-H460; first compound 4 µM) of 0.0375, a relative viability (NCI-H522; first compound 0.04 µM) of 1.06 and a relative viability (NCI-H522; first compound 0.1265 µM) of 1.16. It also gave a relative viability (NCI-H522; first compound 0.4 µM) of 1.05, a relative viability (NCI-H522; first compound 1.265 µM) of 0.852 and a relative viability (NCI-H522; first compound 4 µM) of 1.21. For the same compound, the relative viability (NCI-H1395; first compound 0.04 µM) was 0.723, the relative viability (NCI-H1395; first compound 0.1265 µM) was 0.611 and the relative viability (NCI-H1395; first compound 0.4 µM) was 0.669. The relative viability (NCI-H1395; first compound 1.265 µM) was 0.532, the relative viability (NCI-H1395; first compound 4 µM) was 0.989 and the relative viability (COR-L 105; first compound 0.04 µM) was 0.664. It also gave a relative viability (COR-L 105; first compound 0.1265 µM) of 1.02, a relative viability (COR-L 105; first compound 0.4 µM) of 0.851 and a relative viability (COR-L 105; first compound 1.265 µM) of 0.903. For the same compound, the relative viability (COR-L 105; first compound 4 µM) was 0.702, the relative viability (NCI-H2009; first compound 0.04 µM) was 1.11 and the relative viability (NCI-H2009; first compound 0.1265 µM) was 1.06. It also gave a relative viability (NCI-H2009; first compound 0.4 µM) of 0.954, a relative viability (NCI-H2009; first compound 1.265 µM) of 0.994 and a relative viability (NCI-H2009; first compound 4 µM) of 1.12. It also gave a relative viability (NCI-H727; first compound 0.04 µM) of 0.566, a relative viability (NCI-H727; first compound 0.1265 µM) of 0.344 and a relative viability (NCI-H727; first compound 0.4 µM) of 0.337. The relative viability (NCI-H727; first compound 1.265 µM) was 0.313, the relative viability (NCI-H727; first compound 4 µM) was 0.31 and the relative viability (NCI-H1792; first compound 0.04 µM) was 0.442. It also gave a relative viability (NCI-H1792; first compound 0.1265 µM) of 0.609, a relative viability (NCI-H1792; first compound 0.4 µM) of 0.472 and a relative viability (NCI-H1792; first compound 1.265 µM) of 0.325. It also gave a relative viability (NCI-H1792; first compound 4 µM) of 0.552, a relative viability (SW 1573; first compound 0.04 µM) of 0.261 and a relative viability (SW 1573; first compound 0.1265 µM) of 0.213. It also gave a relative viability (SW 1573; first compound 0.4 µM) of 0.194, a relative viability (SW 1573; first compound 1.265 µM) of 0.205 and a relative viability (SW 1573; first compound 4 µM) of 0.242. The relative viability (NCI-H1355; first compound 0.04 µM) was 0.663, the relative viability (NCI-H1355; first compound 0.1265 µM) was 0.753 and the relative viability (NCI-H1355; first compound 0.4 µM) was 0.703. The relative viability (NCI-H1355; first compound 1.265 µM) was 0.617, the relative viability (NCI-H1355; first compound 4 µM) was 0.809 and the relative viability (NCI-H1975; first compound 0.04 µM) was 0.34. It also gave a relative viability (NCI-H1975; first compound 0.1265 µM) of 0.215, a relative viability (NCI-H1975; first compound 0.4 µM) of 0.35 and a relative viability (NCI-H1975; first compound 1.265 µM) of 0.171. It also gave a relative viability (NCI-H1975; first compound 4 µM) of 0.174, a relative viability (SK-LU-1; first compound 0.04 µM) of 0.209 and a relative viability (SK-LU-1; first compound 0.1265 µM) of 0.2. For the same compound, the relative viability (SK-LU-1; first compound 0.4 µM) was 0.196, the relative viability (SK-LU-1; first compound 1.265 µM) was 0.229 and the relative viability (SK-LU-1; first compound 4 µM) was 0.199. The relative viability (HCC-827; first compound 0.04 µM) was 0.767, the relative viability (HCC-827; first compound 0.1265 µM) was 0.86 and the relative viability (HCC-827; first compound 0.4 µM) was 0.575. For the same compound, the relative viability (HCC-827; first compound 1.265 µM) was 0.581, the relative viability (HCC-827; first compound 4 µM) was 0.361 and the relative viability (HARA; first compound 0.04 µM) was 0.777. It also gave a relative viability (HARA; first compound 0.1265 µM) of 0.813, a relative viability (HARA; first compound 0.4 µM) of 0.565 and a relative viability (HARA; first compound 1.265 µM) of 0.5. The relative viability (HARA; first compound 4 µM) was 0.421, the relative viability (EMC-BAC-2; first compound 0.04 µM) was 1.09 and the relative viability (EMC-BAC-2; first compound 0.1265 µM) was 1.25. For the same compound, the relative viability (EMC-BAC-2; first compound 0.4 µM) was 1.14, the relative viability (EMC-BAC-2; first compound 1.265 µM) was 1.12 and the relative viability (EMC-BAC-2; first compound 4 µM) was 0.892. It also gave a relative viability (NCI-H1437; first compound 0.04 µM) of 1.09, a relative viability (NCI-H1437; first compound 0.1265 µM) of 1.1 and a relative viability (NCI-H1437; first compound 0.4 µM) of 1.07. For the same compound, the relative viability (NCI-H1437; first compound 1.265 µM) was 0.998, the relative viability (NCI-H1437; first compound 4 µM) was 1.23 and the relative viability (LCLC-103H; first compound 0.04 µM) was 1.08. For the same compound, the relative viability (LCLC-103H; first compound 0.1265 µM) was 1.01, the relative viability (LCLC-103H; first compound 0.4 µM) was 0.888 and the relative viability (LCLC-103H; first compound 1.265 µM) was 0.894. The relative viability (LCLC-103H; first compound 4 µM) was 0.879, the relative viability (HOP-62; first compound 0.04 µM) was 0.889 and the relative viability (HOP-62; first compound 0.1265 µM) was 0.932. It also gave a relative viability (HOP-62; first compound 0.4 µM) of 0.878, a relative viability (HOP-62; first compound 1.265 µM) of 0.964 and a relative viability (HOP-62; first compound 4 µM) of 1.01. It also gave a relative viability (CAL-12T; first compound 0.04 µM) of 0.583, a relative viability (CAL-12T; first compound 0.1265 µM) of 1.02 and a relative viability (CAL-12T; first compound 0.4 µM) of 0.36. For the same compound, the relative viability (CAL-12T; first compound 1.265 µM) was 0.392, the relative viability (CAL-12T; first compound 4 µM) was 0.255 and the relative viability (NCI-H1915; first compound 0.04 µM) was 0.774. The relative viability (NCI-H1915; first compound 0.1265 µM) was 0.755, the relative viability (NCI-H1915; first compound 0.4 µM) was 0.792 and the relative viability (NCI-H1915; first compound 1.265 µM) was 1.01. For the same compound, the relative viability (NCI-H1915; first compound 4 µM) was 0.786, the relative viability (NCI-H23; first compound 0.04 µM) was 0.215 and the relative viability (NCI-H23; first compound 0.1265 µM) was 0.203. It also gave a relative viability (NCI-H23; first compound 0.4 µM) of 0.225, a relative viability (NCI-H23; first compound 1.265 µM) of 0.187 and a relative viability (NCI-H23; first compound 4 µM) of 0.241. The relative viability (NCI-H1755; first compound 0.04 µM) was 0.401, the relative viability (NCI-H1755; first compound 0.1265 µM) was 0.32 and the relative viability (NCI-H1755; first compound 0.4 µM) was 0.427. It also gave a relative viability (NCI-H1755; first compound 1.265 µM) of 0.385, a relative viability (NCI-H1755; first compound 4 µM) of 0.599 and a relative viability (NCI-H2228; first compound 0.04 µM) of 0.117. It also gave a relative viability (NCI-H2228; first compound 0.1265 µM) of 0.149, a relative viability (NCI-H2228; first compound 0.4 µM) of 0.122 and a relative viability (NCI-H2228; first compound 1.265 µM) of 0.109. For the same compound, the relative viability (NCI-H2228; first compound 4 µM) was 0.116.

From the supplement of paper PMC10307832
